Here are results for 5 molecules from patent publication US20250345356A1, “TIRAPAZAMINE COMPOSITIONS AND METHODS” (priority 2024, published 2025).

The test system of one series is HCC. The following applies: cited from earlier work.
A short description of series [1]: PK of TPZ and metabolites SR4317 and SR4330 after intra-arterial injection of TPZ in NS vs HPβCD. It is filed as in vivo, Sprague Dawley rats. The following applies: for dose proportionality of plasma concentrations: 3.33 mg/kg vs. 7 mg/kg in either solvent; for reduction of plasma concentrations in the curve of HPβCD than that of NS: after TPZ in 1% HPβCD vs NS; for AUClast, HβC Mean / Cmax, HβC Mean / AUClast, Normal Saline (NS) Mean / Cmax, Normal Saline (NS) Mean: rats. From the text:
Purpose of the study: To evaluate the pharmacokinetics (PK) of tirapazamine and its metabolites, SR4317 and SR4330 [Graham, M A et al. Cancer Chemother. Pharmacol. (1997) 40 (1): 1-10], after injection of TPZ in 1% HPβCD or normal saline.
Animals: Twenty-four female (12) and male (12) Sprague Daley (SD) rats, weight 200-250 grams, respectively, with femoral artery and jugular vein cannulated, were purchased from, Taconic. Two extra cannulated male and female rates were used to test tolerability with buffer. Each rate was housed individually to safeguard the vessel catheters.
The study parameters are shown in Table 22. began after a 3-day period of adjustment to the animal facility. The study compound was injected into the femoral artery catheter (FAC at 2-1 m (by slow injection. Blood samples were collected from a jugular vein catheter (JVC) at 6 timepoints: 0 (baseline) and after drug administration at 15 and 30 minutes, 1 hr, 2 hr, and 6 hours. The volume of blood sample for each time point was approximately 0.6 mL. Plasma samples were collected in tubes containing sodium heparin as anti-coagulant. Plasma was prepared and frozen in −80° C. Rats were euthanized after the last blood sample (euthanized after the 6 hr time point).
Male rats were around 250 grams, and female 200 grams. There were 8 groups with Groups 1-4 females, and […]. Each group had 3 rats. TPZ was dissolved in NS or […] at a concentration 0.7 mg/mL.
The concentrations of TPZ and its metabolites, SR4317 and SR4330, in rat plasma samples were analyzed using liquid chromatography Tandem Mass Spectrometry (LC-MS) by Primera Analytical Solutions Corp (Princeton, NJ). Standards for TPZ, SR4317 and SR4330 were provided by Teclison, Inc. (Princeton, NJ) for calibration. All analytical data were reviewed for completeness and accuracy. Data transferred manually was cross-checked against source data which was part of the study raw data.
LC-MS analysis was conducted with Sciex 4000 with a Shimadzu LC-30 System.
The concentration data was imported and plotted with SAS program as ADPC (Analysis Dataset of Pharmacokinetics Concentrations) dataset. PK parameters calculated based on ADPC were output as an Analysis Dataset of Pharmacokinetics Parameters (ADPP) dataset.
PK parameters of each profile were calculated by non-compartmental analysis using SAS programming. BLQ (Below the Limit of Quantification) observation prior to the first measurable concentration was imputed as zero, otherwise, the BLQ observation was left as missing.
An apparent first-order terminal elimination rate constant (Kel) was calculated by linear least-squares regression analysis using at least three points (excluding Cmax) in the terminal log-linear phase. Uniform weighting was adopted when performing regression analysis. Linear-up/log-down approach was utilized to calculate AUC.
A linear model was built to evaluate the effect of solution on the PK parameters, adjusting for sex and dose. The model included sex (F, M), solution type (Normal saline, Hydroxypropyl-beta-Cyclodextrin “HP-beta-CD”), and dose (mg) as fixed effects. Sex and solution type are categorical variables (meaning a variable based on a qualitative, not numerical, property) and dose is a continuous variable (meaning a random variable that can take on an infinite number of values within a certain interval that represents measurable data). Separate models were built for each combination of analyte (TPZ, SR4317 and SR4330) and PK parameters (AUClast and Cmax) using the BY statement, which divides the observations from an input data set into groups for processing.
The difference of lease squared means between solution types was estimated. 95% confidence intervals (CI), and p-values for the difference were presented. The significance level (alpha) was set at 0.05, meaning that a p-value less than 0.05 was considered statistically significant.

Series [2] concerns advanced head and neck cancer. The following applies: intent-to-treat, with radiotherapy 70 Gy; cited from earlier work.
The conditions of series [3]: 1-week intravenous study, single dose level of 1 g; cited from earlier work.
For series [4] the following is noted: mice, cited from earlier work.
For series [5] the following is noted: cited from earlier work.
[6] abbreviates: intra-arterial TPZ 3.33 mg/kg in HPβCD.
[7] abbreviates: intra-arterial TPZ 3.33 mg/kg in NS.
Setting [8] is: intra-arterial TPZ 7 mg/kg in HPβCD.
The mark [9] stands for this setting: intra-arterial TPZ 7 mg/kg in NS.

Like-named read-outs stand apart in the source and are kept apart here. A value given as a limit tells only on which side of the number the result lay.

As to `COc1cccc2c1C(=O)c1c(O)c3c(c(O)c1C2=O)C[C@@](O)(C(=O)CO)C[C@@H]3O[C@H]1C[C@H](N)[C@H](O)[C@H](C)O1` [doxorubicin], the “necrosis in the HCC within the territory of HAL” value in the series with HCC (Day 1 post-treatment, tirapazamine 3 mg/kg, doxorubicin 10 mg/kg, transient left HAL) is “about 5%”. Moreover, in the series on HCC (Day 7, 10 mg/kg with left HAL), the “pathological changes in HCCs” value is listed as “Little to no pathological changes”.

For `Nc1nnc2ccccc2n1` [SR4330], in series [1] (3.33 mg/kg), the “AUClast HβC/NS Ratio (%)” value came to 73.09% and the “Cmax HβC/NS Ratio (%)” value turned out to be 77.65%. Besides, in series [1], the “dose proportionality of plasma concentrations” value was “dose proportional effect was observed” and the “reduction of plasma concentrations in the curve of HPβCD than that of NS” value is 20-30%. For the same molecule, in series [1] (7 mg/kg), the “AUClast HβC/NS Ratio (%)” value is 74.37& % and the “Cmax HβC/NS Ratio (%)” value turned out to be 89.31%. In addition, the “half-life compared with TPZ and SR4317” value in series [1] (rat plasma) was “longer than TPZ and SR4317”. In addition, in series [1] (setting [6]), the “AUClast, HβC Mean” value is 99.89 ng·h/mL and the “Cmax, HβC Mean” value came out at 81.88 ng/mL. In addition, in series [1] (setting [7]), the “AUClast, Normal Saline (NS) Mean” value was 136.67 ng·h/mL and the “Cmax, Normal Saline (NS) Mean” value came to 105.45 ng/mL. For the same molecule, in series [1] (setting [8]), the “AUClast, HβC Mean” value turned out to be 385.93 ng·h/mL and the “Cmax, HβC Mean” value was 254.83 ng/mL. Besides, in series [1] (setting [9]), the “AUClast, Normal Saline (NS) Mean” value was determined as 518.92 ng·h/mL and the “Cmax, Normal Saline (NS) Mean” value is reported as 285.33 ng/mL.

As for `Nc1nc2ccccc2[n+]([O-])n1` [SR4317], in series [1] (3.33 mg/kg), the “AUClast HβC/NS Ratio (%)” value turned out to be 78.09% and the “Cmax HβC/NS Ratio (%)” value is 80.62%. Further, in series [1], the “dose proportionality of plasma concentrations” value is recorded as “dose proportional effect was observed” and the “reduction of plasma concentrations in the curve of HPβCD than that of NS” value is 20-30%. In series [1] (7 mg/kg), the “AUClast HβC/NS Ratio (%)” value is given as 78.86% and the “Cmax HβC/NS Ratio (%)” value came to 88.17%. In addition, in series [1] (setting [6]), the “AUClast, HβC Mean” value was determined as 479.96 ng·h/mL and the “Cmax, HβC Mean” value stood at 490.17 ng/mL. For the same molecule, in series [1] (setting [7]), the “AUClast, Normal Saline (NS) Mean” value was determined as 614.61 ng·h/mL and the “Cmax, Normal Saline (NS) Mean” value is 608.00 ng/mL. Also, in series [1] (setting [8]), the “AUClast, HβC Mean” value was 1210.97 ng·h/mL and the “Cmax, HβC Mean” value is recorded as 1122.67 ng/mL. In series [1] (setting [9]), the “AUClast, Normal Saline (NS) Mean” value stood at 1535.52 ng·h/mL and the “Cmax, Normal Saline (NS) Mean” value came to 1273.33 ng/mL.

Consider `N.N.[Cl][Pt][Cl]` [CIS, cisplatin], for which the “2-year OS rates” value in series [2] is 65.7%.

Take 2-hydroxypropyl-β-cyclodextrin [HPβCD]: the adverse effects entry was “no adverse effects were reported” in series [3]; “increased incidence of soft stools and diarrhea” in series [5] (oral daily doses of 16-24 g for 14 days, healthy volunteers). Besides, in series [4] (single intravenous dose of up to 2 g/kg), the lethality result is reported as “not lethal”. Moreover, in series [4] (up to 10 gram/kg intra-peritoneal (i.p.) injection), the acute toxicity entry is “neither lethal nor did it produce any toxicity”. The “daily dose considered non-toxic” value in series [5] (at least for 14 days) is below 16 g. Further, in series [5] (daily oral doses of 4-8 g for at least 2 weeks), the tolerability entry was “well tolerated and safe”.
